Data published in publication PMC7734281, “Functionalized Oxoindolin Hydrazine Carbothioamide Derivatives as Highly Potent Inhibitors of Nucleoside Triphosphate Diphosphohydrolases” (Frontiers in Pharmacology, 2020).
Entries after “also recorded” stand apart in the source; their conditions may differ.

What was measured:
mice pancreatic islets [1] = test: Glucose stimulated insulin secretion in isolated mice islets (ELISA); type: cell-based, BALB/c mice; conditions: 16.7 mM glucose; for Effect on glucose stimulated insulin secretion: compound 200 µM, 1 h, 37°C
Procedure: Six to eight week old BALB/c mice, weighing 30–40 g, were used in the study. These mice were obtained from the animal house of COMSATS University Islamabad, Abbottabad Campus and placed under standard temperature (25 ± 2°C) and humidity (50–55%) conditions with an alternate 12-h light/dark cycle. All the experimental animals were provided with a continuous supply of food and water. The animals were handled according to internationally accepted guidelines of animal care and use. Moreover, this study was reviewed and approved by Research Ethics Committee, Department of Pharmacy, COMSATS University Islamabad, Abbottabad Campus. (Protocol number: PHM.Eth./CS-M01-020-1609)
The islets were isolated from mice pancreas as previously described, by a process involving collagenase digestion ([Hameed et al., 2018]). Briefly, mice were anesthetized with sodium thiopental (30 mg kg) and sacrificed by cervical dislocation to block the flow of blood. Immediately, mice were transferred to biological hood and their abdominal cavity was opened completely by making an incision on abdomen. In order to stop the bile flow toward duodenum, ampulla was located and clamped under dissection microscope. Then, distention of pancreas was carried out by injecting 3 ml of collagenase solution (1 mg/ml) through common bile duct. The distended pancreas was removed as a whole, transferred to a 50 ml tube and digested in collagenase solution at 37°C. After 15 min, digestion was stopped by placing the tube on ice and 20 ml of Hank’s Balanced Salt Solution (HBSS) was added to it. Thus the digested islets were washed with HBSS (two to three times) by centrifugation (1,000 rpm) for 1 min at 4°C. Finally, islets were purified by passing through a cell strainer (70 µm) and isolated manually (by hand picking) under stereomicroscope (Euromex, Arnhem, Netherlands). All the purification and isolation procedures were carried out in HBSS, containing no magnesium, calcium and phenol red.
Krebs-Ringer bicarbonate buffer (KRBB) was used as an incubation medium for islets and was composed of NaCl (118 mM), KCl (4.7 mM), CaCl2 (1.9 mM), MgSO4 (1.2 mM), NaHCO3 (25 mM), 4-(2-hydroxyethyl)-1-piperazineethanesulfonic acid (HEPES, 10 mM) and bovine serum albumin (0.1%). The pH of KRBB was maintained at 7.4. The isolated islets were size-matched and pre-incubated (3 islets/tube) for 45 min at 37°C in KRBB, supplemented with 3 mM glucose. Thereafter, incubation medium was replaced with fresh KRBB (containing 16.7 mM glucose) and islets were incubated for 60 min at 37°C with or without test substance(s). After incubation, supernatant was collected and stored at −40°C until further use. Finally, collected samples were properly diluted and insulin secretion was estimated with ultra-sensitive mouse insulin ELISA kit (Crystal Chem Inc., Downers Grove, United States) according to the manufacturer’s instructions. The absorbance was measured at 450 nm and insulin secretion was normalized for number of islets used. ([Hameed et al., 2018]).

h-NTPDase8 = biological target: T1, h-NTPDase8 (Homo sapiens, UniProt Q5MY95); test: h-NTPDase8 inhibition, malachite green assay; type: biochemical; conditions: Lineweaver-Burk plot
T1 construct: made in house; host or cells: COS-7 cells, transient transfection; crude protein extract after sonication
T1 sequence (Q5MY95 1-495): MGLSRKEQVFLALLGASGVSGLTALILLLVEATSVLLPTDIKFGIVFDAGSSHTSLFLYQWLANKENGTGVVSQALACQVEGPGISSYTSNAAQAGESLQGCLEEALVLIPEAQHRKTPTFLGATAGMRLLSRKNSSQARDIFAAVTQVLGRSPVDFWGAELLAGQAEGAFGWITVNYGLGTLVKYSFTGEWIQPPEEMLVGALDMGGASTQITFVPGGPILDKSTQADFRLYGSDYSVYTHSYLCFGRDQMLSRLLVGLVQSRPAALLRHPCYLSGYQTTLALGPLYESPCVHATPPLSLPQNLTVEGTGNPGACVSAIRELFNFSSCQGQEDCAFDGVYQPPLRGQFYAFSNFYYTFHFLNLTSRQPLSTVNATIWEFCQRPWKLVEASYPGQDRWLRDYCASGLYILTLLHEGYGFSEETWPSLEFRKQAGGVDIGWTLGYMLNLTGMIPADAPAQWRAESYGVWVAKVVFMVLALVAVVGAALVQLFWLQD

[2] = system: ectonucleotidase activity in islets homogenate; test: Ectonucleotidase activity of islet homogenate (malachite green, Pi release); type: biochemical, mice; conditions: for Effect on ectonucleotidase activity in islets homogenate: compound 100 µM, 100 µM ATP as substrate, versus control
Procedure: Islets were isolated and homogenized, according to the previously reported method ([Hedeskov and Capito, 1974]). After isolation, islets were washed thrice with HBSS and suspended in an ice-cold buffer containing sucrose (0.25 M), ethylenediaminetetraacetic acid (EDTA,1 mM) and tris-HCl (5 mM), maintained at pH 7.0. The resulting suspension was diluted with assay buffer, composed of tris-HCl (50 mM) and CaCl2 (5 mM). Afterward, these islets were sonicated for 30 s leading to disruption of islets and formation of a homogenate. Cellular debris was removed by centrifugation at 15,000 rpm for 10 min (4°C). The supernatant was collected and stored on ice. Protein concentration was estimated by Bradford method, using bovine serum albumin as reference standard ([Bradford, 1976]).
In order to determine the effect of compounds on ectonucleotidase activity in mice islets, standard curve based procedure was used where KH2PO4 was used as a standard. A stock solution of KH2PO4 (1 mM) was prepared in assay buffer that was used to prepare the working solutions of lower concentrations (0–100 µm). A standard curve was generated by incubating increasing concentration of KH2PO4 with buffer and malachite green reagent.
The assay was carried out in tris-buffer (pH 7.4) containing tris-HCl (50 mM) and CaCl2 (5 mM), as previously described ([Lavoie et al., 2010]). Compounds were dissolved in DMSO (10%) and tested at a concentration of 100 µM. The assay was started by adding 10 µl of test compound solution to 56 µl of assay buffer, followed by the addition of 6 µl of homogenate (i.e., 3 µg of protein). The mixture was incubated at 37°C for 10 min and then 10 µl of ATP (100 µM) was added to start the reaction. Reaction mixture was again placed in incubator at 37°C for 15 min and then reaction was stopped by adding 100 µl of trichloroacetic acid (10%). […] Finally, samples were mixed with malachite green reagent in an appropriate proportion and released Pi was determined by using standard curve. […] All the experiments were carried out in triplicate and enzyme activity was expressed as […] of Pi/min/mg of protein.

mice pancreatic islets [3] = test: Glucose stimulated insulin secretion in isolated mice islets (ELISA); type: cell-based, BALB/c mice; conditions: basal glucose 3 mM

SMILES	Effect on glucose stimulated insulin secretion (mice pancreatic islets [1])	Mode of inhibition of h-NTPDase8 (h-NTPDase8)	Dose-dependent effect on insulin secretion (mice pancreatic islets [1]; 10–200 µM)	Effect on ectonucleotidase activity in islets homogenate [2]	Dose response of ectonucleotidase activity in islet homogenate ([2]; different concentrations, 100 µM ATP, Pi release)	Effect on insulin secretion at basal glucose level (mice pancreatic islets [3])
O=C1Nc2ccccc2/C1=N/NC(=S)Nc1ccc(Cl)cc1 [8c, (Z)-N-(4-chlorophenyl)-2-(2-oxoindolin-3-ylidene)hydrazine-1-carbothioamide]	no significant effect on insulin secretion; also recorded: did not show any significant effect on insulin secretion	competitive	–	–	–	–
CCNC(=S)N/N=C1\C(=O)Nc2ccccc21 [8m, (Z)-N-ethyl-2-(2-oxoindolin-3-ylidene)hydrazine-1-carbothioamide]	potently stimulated insulin secretion; also recorded: significant increase in glucose stimulated insulin secretion	–	dose dependent increase in insulin release; also recorded: dose dependent increase in insulin secretion	significantly decreased the ectonucleotidase activity; also recorded: significantly reduced the enzyme activity; also recorded: significant reduction in ectonucleotidase activity; also recorded: significantly reduced ectonucleotidase activity	dose dependent decrease in enzyme activity	no effect on insulin secretion; also recorded: did not produce any significant effect
Cc1ccc(C(=O)Nc2ccc(S(=O)(=O)O)c3cc(S(=O)(=O)O)cc(S(=O)(=O)O)c23)cc1NC(=O)c1cccc(NC(=O)Nc2cccc(C(=O)Nc3cc(C(=O)Nc4ccc(S(=O)(=O)O)c5cc(S(=O)(=O)O)cc(S(=O)(=O)O)c45)ccc3C)c2)c1 [Suramin, reference compound]	Neither suramin nor isatin had any significant effect	–	–	significantly reduced the enzyme activity	–	–
